Measured values as given in PubChem BioAssay (NCI).
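Compound exposure: 48 hours, 5 concentrations, 96-well plates. GI50 marks 50% less growth. TGI: total growth inhibition.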

Key:
Assay in all cases: inhibition of tumour cell growth, NCI panel, 48 h
786-0 renal = system: 786-0 renal
A498 renal = system: A498 renal
A549 NSCLC = system: A549 NSCLC
ACHN renal = system: ACHN renal
BT-549 breast = system: BT-549 breast
CAKI-1 renal = system: CAKI-1 renal
CCRF-CEM leukemia = system: CCRF-CEM leukemia
COLO 205 colon = system: COLO 205 colon
DU-145 prostate = system: DU-145 prostate
EKVX NSCLC = system: EKVX NSCLC
HCC-2998 colon = system: HCC-2998 colon
HCT-116 colon = system: HCT-116 colon
HCT-15 colon = system: HCT-15 colon
HL-60(TB) leukemia = system: HL-60(TB) leukemia
HOP-62 NSCLC = system: HOP-62 NSCLC
HOP-92 NSCLC = system: HOP-92 NSCLC
HS 578T breast = system: HS 578T breast
HT29 colon = system: HT29 colon
IGROV1 ovarian = system: IGROV1 ovarian
K-562 leukemia = system: K-562 leukemia
KM12 colon = system: KM12 colon
LOX IMVI melanoma = system: LOX IMVI melanoma
M14 melanoma = system: M14 melanoma
MALME-3M melanoma = system: MALME-3M melanoma
MCF7 breast = system: MCF7 breast
MDA-MB-231 breast = system: MDA-MB-231 breast
MDA-MB-435 = system: MDA-MB-435
MOLT-4 leukemia = system: MOLT-4 leukemia
NCI-H226 lung = system: NCI-H226 lung
NCI-H23 lung = system: NCI-H23 lung
NCI-H460 lung = system: NCI-H460 lung
NCI-H522 lung = system: NCI-H522 lung
NCI/ADR-RES ovarian = system: NCI/ADR-RES ovarian
OVCAR-3 ovarian = system: OVCAR-3 ovarian
OVCAR-4 ovarian = system: OVCAR-4 ovarian
OVCAR-5 ovarian = system: OVCAR-5 ovarian
OVCAR-8 ovarian = system: OVCAR-8 ovarian
PC-3 prostate = system: PC-3 prostate
RPMI-8226 leukemia = system: RPMI-8226 leukemia
SF-268 CNS = system: SF-268 CNS
SF-295 CNS = system: SF-295 CNS
SF-539 CNS = system: SF-539 CNS
SK-MEL-2 melanoma = system: SK-MEL-2 melanoma
SK-MEL-28 melanoma = system: SK-MEL-28 melanoma
SK-MEL-5 melanoma = system: SK-MEL-5 melanoma
SK-OV-3 ovarian = system: SK-OV-3 ovarian
SN12C renal = system: SN12C renal
SNB-19 CNS = system: SNB-19 CNS
SNB-75 CNS = system: SNB-75 CNS
SR leukemia = system: SR leukemia
SW-620 colon = system: SW-620 colon
T-47D breast = system: T-47D breast
TK-10 renal = system: TK-10 renal
U251 CNS = system: U251 CNS
UACC-257 melanoma = system: UACC-257 melanoma
UACC-62 melanoma = system: UACC-62 melanoma
UO-31 renal = system: UO-31 renal
RXF 393 renal = system: RXF 393 renal

## CCNCCOc1ccc(/C(=C(/CC)c2ccc(Cl)cc2)c2ccc(OCCCN(C)C)cc2)cc1
786-0 renal
  GI50: 3.57 µM
  TGI: 7.44 µM
A498 renal
  GI50: 3.38 µM
  TGI: 6.98 µM
A549 NSCLC
  GI50: 3.33 µM
  TGI: 7.15 µM
ACHN renal
  GI50: 4.41 µM
  TGI: 8.02 µM
BT-549 breast
  GI50: 3.45 µM
  TGI: 7.16 µM
CAKI-1 renal
  GI50: 4.39 µM
  TGI: 8.05 µM
CCRF-CEM leukemia
  GI50: 5.08 µM
  TGI: 11.4 µM
COLO 205 colon
  GI50: 3.13 µM
  TGI: 7.84 µM
DU-145 prostate
  GI50: 3.99 µM
  TGI: 7.5 µM
EKVX NSCLC
  GI50: 4.32 µM
  TGI: 8.1 µM
HCC-2998 colon
  GI50: 3.93 µM
  TGI: 7.72 µM
HCT-116 colon
  GI50: 2.78 µM
  TGI: 6.48 µM
HCT-15 colon
  GI50: 2.19 µM
  TGI: 5.54 µM
HL-60(TB) leukemia
  GI50: 5.83 µM
  TGI: 11.1 µM
HOP-62 NSCLC
  GI50: 4.24 µM
  TGI: 8.69 µM
HOP-92 NSCLC
  GI50: 0.818 µM
  TGI: 4.47 µM
HS 578T breast
  GI50: 3.26 µM
  TGI: 7.63 µM
HT29 colon
  GI50: 0.98 µM
  TGI: 3.79 µM
IGROV1 ovarian
  GI50: 4.17 µM
  TGI: 7.85 µM
K-562 leukemia
  GI50: 0.933 µM
  TGI: 2.43 µM
KM12 colon
  GI50: 3.94 µM
  TGI: 7.59 µM
LOX IMVI melanoma
  GI50: 3.72 µM
  TGI: 7.37 µM
M14 melanoma
  GI50: 4.3 µM
  TGI: 8.31 µM
MALME-3M melanoma
  GI50: 3.95 µM
  TGI: 7.57 µM
MCF7 breast
  GI50: 1.3 µM
  TGI: 4.94 µM
MDA-MB-231 breast
  GI50: 4.06 µM
  TGI: 7.73 µM
MDA-MB-435
  GI50: 3.77 µM
  TGI: 7.34 µM
MOLT-4 leukemia
  GI50: 4.56 µM
  TGI: 9.41 µM
NCI-H226 lung
  GI50: 3.74 µM
  TGI: 7.59 µM
NCI-H23 lung
  GI50: 4.31 µM
  TGI: 8.15 µM
NCI-H460 lung
  GI50: 3.9 µM
  TGI: 7.6 µM
NCI-H522 lung
  GI50: 4 µM
  TGI: 8.04 µM
NCI/ADR-RES ovarian
  GI50: 4.19 µM
  TGI: 8.08 µM
OVCAR-3 ovarian
  GI50: 3.46 µM
  TGI: 6.87 µM
OVCAR-4 ovarian
  GI50: 3.83 µM
  TGI: 8.07 µM
OVCAR-5 ovarian
  GI50: 4.07 µM
  TGI: 7.67 µM
OVCAR-8 ovarian
  GI50: 3.91 µM
  TGI: 7.64 µM
PC-3 prostate
  GI50: 4.01 µM
  TGI: 9.01 µM
RPMI-8226 leukemia
  GI50: 4.98 µM
  TGI: 13.5 µM
SF-268 CNS
  GI50: 3.89 µM
  TGI: 7.92 µM
SF-295 CNS
  GI50: 4.44 µM
  TGI: 8.24 µM
SF-539 CNS
  GI50: 3.97 µM
  TGI: 7.51 µM
SK-MEL-2 melanoma
  GI50: 4.13 µM
  TGI: 7.77 µM
SK-MEL-28 melanoma
  GI50: 4.16 µM
  TGI: 7.78 µM
SK-MEL-5 melanoma
  GI50: 4.51 µM
  TGI: 8.21 µM
SK-OV-3 ovarian
  GI50: 4.36 µM
  TGI: 8.34 µM
SN12C renal
  GI50: 3.84 µM
  TGI: 7.42 µM
SNB-19 CNS
  GI50: 4.45 µM
  TGI: 8.21 µM
SNB-75 CNS
  GI50: 3.68 µM
  TGI: 7.45 µM
SR leukemia
  GI50: 2.98 µM
  TGI: 8.52 µM
SW-620 colon
  GI50: 1.75 µM
  TGI: 5.24 µM
T-47D breast
  GI50: 3.05 µM
  TGI: 7.55 µM
TK-10 renal
  GI50: 3.99 µM
  TGI: 8.07 µM
U251 CNS
  GI50: 3.17 µM
  TGI: 6.61 µM
UACC-257 melanoma
  GI50: 4.04 µM
  TGI: 7.83 µM
UACC-62 melanoma
  GI50: 4.48 µM
  TGI: 8.22 µM
UO-31 renal
  GI50: 3.32 µM
  TGI: 6.68 µM

## CN(C)CCCNc1c2ccc(Cl)cc2nc2c1oc1ccccc12
786-0 renal
  GI50: 3.2 µM
  TGI: 14.2 µM
A498 renal
  GI50: 7.55 µM
  TGI: 21.2 µM
ACHN renal
  GI50: 1.78 µM
  TGI: 12.2 µM
BT-549 breast
  GI50: 4.12 µM
  TGI: 14.4 µM
CAKI-1 renal
  GI50: 1.59 µM
  TGI: 4.39 µM
CCRF-CEM leukemia
  GI50: 2.57 µM
  TGI: 10.3 µM
COLO 205 colon
  GI50: 1.51 µM
  TGI: 4.03 µM
DU-145 prostate
  GI50: 3.49 µM
  TGI: 79.2 µM
EKVX NSCLC
  GI50: 3.51 µM
  TGI: 21.3 µM
HCC-2998 colon
  GI50: 1.77 µM
  TGI: 4.18 µM
HCT-116 colon
  GI50: 1.42 µM
  TGI: 8.19 µM
HCT-15 colon
  GI50: 2.35 µM
  TGI: 11.1 µM
HL-60(TB) leukemia
  GI50: 2.52 µM
  TGI: 8.94 µM
HOP-62 NSCLC
  GI50: 2.61 µM
  TGI: 9.05 µM
HOP-92 NSCLC
  GI50: 1.34 µM
  TGI: 5.13 µM
HS 578T breast
  GI50: 3.53 µM
  TGI: 22.2 µM
HT29 colon
  GI50: 1.34 µM
  TGI: 3.58 µM
IGROV1 ovarian
  GI50: 2.77 µM
  TGI: 7.49 µM
K-562 leukemia
  GI50: 2.02 µM
  TGI: 11.7 µM
KM12 colon
  GI50: 2.76 µM
  TGI: 16.8 µM
LOX IMVI melanoma
  GI50: 1.86 µM
  TGI: 4.1 µM
M14 melanoma
  GI50: 1.69 µM
  TGI: 3.45 µM
MALME-3M melanoma
  GI50: 3.1 µM
  TGI: 10.6 µM
MCF7 breast
  GI50: 1.77 µM
  TGI: 6.02 µM
MDA-MB-231 breast
  GI50: 2.44 µM
  TGI: 8.61 µM
MDA-MB-435
  GI50: 1.65 µM
  TGI: 3.32 µM
MOLT-4 leukemia
  GI50: 0.676 µM
  TGI: 13.2 µM
NCI-H226 lung
  GI50: 3.19 µM
  TGI: 11.9 µM
NCI-H460 lung
  GI50: 1.64 µM
  TGI: 8.1 µM
NCI-H522 lung
  GI50: 2.18 µM
  TGI: 7.89 µM
NCI/ADR-RES ovarian
  GI50: 1.91 µM
  TGI: 12.6 µM
OVCAR-3 ovarian
  GI50: 3.45 µM
  TGI: 15.6 µM
OVCAR-4 ovarian
  GI50: 2.12 µM
  TGI: 6.89 µM
OVCAR-5 ovarian
  GI50: 2.46 µM
  TGI: 7.81 µM
OVCAR-8 ovarian
  GI50: 2.42 µM
  TGI: 7.87 µM
PC-3 prostate
  GI50: 2.16 µM
  TGI: 6.13 µM
RPMI-8226 leukemia
  GI50: 2.27 µM
  TGI: 5.94 µM
RXF 393 renal
  GI50: 1.64 µM
  TGI: 3.76 µM
SF-268 CNS
  GI50: 2.54 µM
  TGI: 12.1 µM
SF-295 CNS
  GI50: 3.41 µM
  TGI: 15.3 µM
SF-539 CNS
  GI50: 1.76 µM
  TGI: 3.39 µM
SK-MEL-2 melanoma
  GI50: 3.29 µM
  TGI: 12.6 µM
SK-MEL-28 melanoma
  GI50: 4.43 µM
  TGI: 16.3 µM
SK-MEL-5 melanoma
  GI50: 10.6 µM
  TGI: 23.8 µM
SK-OV-3 ovarian
  GI50: 3.04 µM
  TGI: 11.2 µM
SN12C renal
  GI50: 2.5 µM
  TGI: 11.6 µM
SNB-19 CNS
  GI50: 3.37 µM
  TGI: 20.5 µM
SNB-75 CNS
  GI50: 1.68 µM
  TGI: 4.66 µM
SR leukemia
  GI50: 2.34 µM
  TGI: 10.3 µM
SW-620 colon
  GI50: 1.24 µM
  TGI: 10.1 µM
T-47D breast
  GI50: 4.84 µM
  TGI: 23.2 µM
TK-10 renal
  GI50: 4.19 µM
  TGI: 22.1 µM
U251 CNS
  GI50: 2.69 µM
  TGI: 10.3 µM
UACC-257 melanoma
  GI50: 3.79 µM
  TGI: 15.2 µM
UACC-62 melanoma
  GI50: 5.2 µM
  TGI: 19.6 µM
UO-31 renal
  GI50: 2.09 µM
  TGI: 12.8 µM
